≈ marks a conversion by molar mass, not a printed value.
test system: Mycobacterium tuberculosis; assay: Antitubercular activity against Mycobacterium tuberculosis H37Rv […] by microplate alamar blue assay; format: functional

Structure (SMILES)	MIC [mg/L]
CSCCC(NC(=O)NC(Cc1c[nH]c2ccccc12)C(=O)O)C(=O)NC(C(=O)N/C=C1\C[C@@H](O)[C@H](n2ccc(=O)[nH]c2=O)O1)C(C)N(C)C(=O)C(Cc1cccc(O)c1)NC(=O)CCl (stereo not given in full)	> 16
CCCNC(Cc1cccc(O)c1)C(=O)N(C)C(C)C(NC(=O)C(CCSC)NC(=O)NC(Cc1c[nH]c2ccccc12)C(=O)O)C(=O)N/C=C1\C[C@@H](O)[C@H](n2ccc(=O)[nH]c2=O)O1 (stereo not given in full)	> 16
CSCCC(NC(=O)NC(Cc1c[nH]c2ccccc12)C(=O)O)C(=O)NC(C(=O)N/C=C1\C[C@@H](OC(C)=O)[C@H](n2ccc(=O)[nH]c2=O)O1)C(C)N(C)C(=O)C(Cc1cccc(OC(C)=O)c1)NC(C)=O (stereo not given in full)	> 16
CSCCC(NC(=O)NC(Cc1c[nH]c2ccccc12)C(=O)O)C(=O)NC(C(=O)N/C=C1\C[C@@H](O)[C@H](n2ccc(=O)[nH]c2=O)O1)C(C)N(C)C(=O)C(Cc1cccc(O)c1)N(C)C (stereo not given in full)	16 (≈ 17.9 µM)
CSCCC(NC(=O)NC(Cc1c[nH]c2ccccc12)C(=O)O)C(=O)NC(C(=O)N/C=C1\C[C@@H](O)[C@H](n2ccc(=O)[nH]c2=O)O1)C(C)N(C)C(=O)C(Cc1cccc(O)c1)NS(=O)(=O)c1ccccc1 (stereo not given in full)	> 16
CSCCC(NC(=O)NC(Cc1c[nH]c2ccccc12)C(=O)O)C(=O)NC(C(=O)N/C=C1\C[C@@H](O)[C@H](n2ccc(=O)[nH]c2=O)O1)C(C)N(C)C(=O)C(Cc1cccc(O)c1)NS(C)(=O)=O (stereo not given in full)	> 16
CSCCC(NC(=O)NC(Cc1c[nH]c2ccccc12)C(=O)O)C(=O)NC(C(=O)N/C=C1\C[C@@H](O)[C@H](n2ccc(=O)[nH]c2=O)O1)C(C)N(C)C(=O)C(Cc1cccc(O)c1)NC(C)C (stereo not given in full)	8 (≈ 8.83 µM)
CCCCCNC(Cc1cccc(O)c1)C(=O)N(C)C(C)C(NC(=O)C(CCSC)NC(=O)NC(Cc1c[nH]c2ccccc12)C(=O)O)C(=O)N/C=C1\C[C@@H](O)[C@H](n2ccc(=O)[nH]c2=O)O1 (stereo not given in full)	> 16
CSCCC(NC(=O)NC(Cc1c[nH]c2ccccc12)C(=O)O)C(=O)NC(C(=O)N/C=C1\C[C@@H](O)[C@H](n2ccc(=O)[nH]c2=O)O1)C(C)N(C)C(=O)C(N)Cc1cccc(O)c1 (stereo not given in full) [SANSANMYCIN A]	16 (≈ 18.5 µM)
COC(=O)NC(Cc1cccc(O)c1)C(=O)N(C)C(C)C(NC(=O)C(CCSC)NC(=O)NC(Cc1c[nH]c2ccccc12)C(=O)O)C(=O)N/C=C1\C[C@@H](O)[C@H](n2ccc(=O)[nH]c2=O)O1 (stereo not given in full)	> 16
CSCCC(NC(=O)NC(Cc1c[nH]c2ccccc12)C(=O)O)C(=O)NC(C(=O)N/C=C1\C[C@@H](O)[C@H](n2ccc(=O)[nH]c2=O)O1)C(C)N(C)C(=O)C(Cc1cccc(O)c1)NS(=O)(=O)c1ccc(C)cc1 (stereo not given in full)	> 16
COc1ccc(S(=O)(=O)NC(Cc2cccc(O)c2)C(=O)N(C)C(C)C(NC(=O)C(CCSC)NC(=O)NC(Cc2c[nH]c3ccccc23)C(=O)O)C(=O)N/C=C2\C[C@@H](O)[C@H](n3ccc(=O)[nH]c3=O)O2)cc1 (stereo not given in full)	> 16
CSCCC(NC(=O)NC(Cc1c[nH]c2ccccc12)C(=O)O)C(=O)NC(C(=O)N/C=C1\C[C@@H](O)[C@H](n2ccc(=O)[nH]c2=O)O1)C(C)N(C)C(=O)C(Cc1cccc(O)c1)NC(=O)OCc1ccccc1 (stereo not given in full)	> 16
CCCCNC(Cc1cccc(O)c1)C(=O)N(C)C(C)C(NC(=O)C(CCSC)NC(=O)NC(Cc1c[nH]c2ccccc12)C(=O)O)C(=O)N/C=C1\C[C@@H](O)[C@H](n2ccc(=O)[nH]c2=O)O1 (stereo not given in full)	> 16
CSCCC(NC(=O)NC(Cc1c[nH]c2ccccc12)C(=O)O)C(=O)NC(C(=O)N/C=C1\C[C@@H](O)[C@H](n2ccc(=O)[nH]c2=O)O1)C(C)N(C)C(=O)C(Cc1cccc(OC(C)=O)c1)NC(C)=O (stereo not given in full)	> 16
CCNC(Cc1cccc(O)c1)C(=O)N(C)C(C)C(NC(=O)C(CCSC)NC(=O)NC(Cc1c[nH]c2ccccc12)C(=O)O)C(=O)N/C=C1\C[C@@H](O)[C@H](n2ccc(=O)[nH]c2=O)O1 (stereo not given in full)	> 16
NNC(=O)c1ccncc1 [ISONIAZID]	0.05 (≈ 0.365 µM)
CCOC(=O)NC(Cc1cccc(O)c1)C(=O)N(C)C(C)C(NC(=O)C(CCSC)NC(=O)NC(Cc1c[nH]c2ccccc12)C(=O)O)C(=O)N/C=C1\C[C@@H](O)[C@H](n2ccc(=O)[nH]c2=O)O1 (stereo not given in full)	> 16
CSCCC(NC(=O)NC(Cc1c[nH]c2ccccc12)C(=O)O)C(=O)NC(C(=O)N/C=C1\C[C@@H](O)[C@H](n2ccc(=O)[nH]c2=O)O1)C(C)N(C)C(=O)C(Cc1cccc(O)c1)NC(=O)c1ccccc1 (stereo not given in full)	> 16
CO[C@H]1/C=C/O[C@@]2(C)Oc3c(C)c(O)c4c(O)c(c(/C=N/N5CCN(C)CC5)c(O)c4c3C2=O)NC(=O)/C(C)=C\C=C\[C@H](C)[C@H](O)[C@@H](C)[C@@H](O)[C@@H](C)[C@H](OC(C)=O)[C@@H]1C [RIFAMPIN]	0.12 (≈ 0.146 µM)
